Data on four compounds can be found in ChEMBL document CHEMBL5291721, “A preclinical secondary pharmacology resource illuminates target-adverse drug reaction associations of marketed drugs” (Nat Commun, 2023).

The target of one assay is T1, Thromboxane A2 receptor (Homo sapiens, UniProt P21731).
T1 sequence (P21731 whole entry): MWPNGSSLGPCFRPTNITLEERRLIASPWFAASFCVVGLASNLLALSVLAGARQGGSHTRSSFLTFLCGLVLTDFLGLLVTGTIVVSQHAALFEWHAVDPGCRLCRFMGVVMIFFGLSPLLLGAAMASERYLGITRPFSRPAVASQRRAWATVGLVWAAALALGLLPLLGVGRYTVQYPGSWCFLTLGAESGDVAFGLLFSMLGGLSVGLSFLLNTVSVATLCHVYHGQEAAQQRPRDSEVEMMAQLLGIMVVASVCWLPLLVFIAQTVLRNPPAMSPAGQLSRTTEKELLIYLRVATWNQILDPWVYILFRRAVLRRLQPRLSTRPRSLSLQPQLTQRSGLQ
The format is functional.

Assay [1] has as its target T2, Retinoic acid receptor beta (Homo sapiens, UniProt P10826).
T2 sequence (P10826 whole entry): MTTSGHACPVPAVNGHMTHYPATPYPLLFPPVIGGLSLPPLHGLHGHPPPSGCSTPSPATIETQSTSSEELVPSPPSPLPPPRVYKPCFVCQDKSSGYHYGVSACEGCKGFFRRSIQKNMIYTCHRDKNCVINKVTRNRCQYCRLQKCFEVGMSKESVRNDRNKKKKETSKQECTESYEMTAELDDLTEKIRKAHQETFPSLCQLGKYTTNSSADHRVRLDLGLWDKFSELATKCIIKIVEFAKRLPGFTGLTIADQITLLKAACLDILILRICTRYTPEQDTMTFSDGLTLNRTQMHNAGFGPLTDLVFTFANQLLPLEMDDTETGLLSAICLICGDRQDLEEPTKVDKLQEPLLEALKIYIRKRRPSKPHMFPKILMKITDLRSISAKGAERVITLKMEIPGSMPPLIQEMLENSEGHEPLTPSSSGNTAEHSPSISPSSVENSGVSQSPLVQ
Format: functional, cell-based.

Assay [2] addresses T3, Oxysterols receptor LXR-beta (Homo sapiens, UniProt P55055).
T3 sequence (P55055 whole entry): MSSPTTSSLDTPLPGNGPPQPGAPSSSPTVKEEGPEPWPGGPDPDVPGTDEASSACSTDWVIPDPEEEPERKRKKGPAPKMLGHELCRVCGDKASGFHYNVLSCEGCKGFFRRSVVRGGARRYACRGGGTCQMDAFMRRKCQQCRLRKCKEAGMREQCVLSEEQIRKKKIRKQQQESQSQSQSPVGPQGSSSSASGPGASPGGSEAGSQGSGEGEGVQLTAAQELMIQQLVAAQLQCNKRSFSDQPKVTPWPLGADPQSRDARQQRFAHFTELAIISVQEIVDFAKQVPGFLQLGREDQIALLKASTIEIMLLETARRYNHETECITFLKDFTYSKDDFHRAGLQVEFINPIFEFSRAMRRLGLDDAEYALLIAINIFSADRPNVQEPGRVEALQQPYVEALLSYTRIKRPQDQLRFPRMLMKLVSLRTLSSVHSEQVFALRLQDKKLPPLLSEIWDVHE
Format: functional.

Assay [3] deals with T4, Retinoic acid receptor alpha (Homo sapiens, UniProt P10276).
T4 sequence (P10276 whole entry): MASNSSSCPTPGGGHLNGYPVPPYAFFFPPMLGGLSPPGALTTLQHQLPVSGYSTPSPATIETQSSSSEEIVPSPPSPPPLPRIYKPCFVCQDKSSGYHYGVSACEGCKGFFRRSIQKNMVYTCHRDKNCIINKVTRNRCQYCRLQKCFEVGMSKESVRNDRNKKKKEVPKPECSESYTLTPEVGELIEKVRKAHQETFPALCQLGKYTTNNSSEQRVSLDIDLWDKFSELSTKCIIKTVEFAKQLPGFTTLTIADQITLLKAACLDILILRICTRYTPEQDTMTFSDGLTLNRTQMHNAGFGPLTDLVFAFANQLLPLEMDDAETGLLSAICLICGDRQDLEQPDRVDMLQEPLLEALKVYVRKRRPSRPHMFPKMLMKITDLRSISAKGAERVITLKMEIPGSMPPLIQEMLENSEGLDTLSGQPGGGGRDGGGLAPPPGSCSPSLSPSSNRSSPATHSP
The format is functional, cell-based.

Assay [4] deals with T5, Oxysterols receptor LXR-alpha (Homo sapiens, UniProt Q13133).
T5 sequence (Q13133 whole entry): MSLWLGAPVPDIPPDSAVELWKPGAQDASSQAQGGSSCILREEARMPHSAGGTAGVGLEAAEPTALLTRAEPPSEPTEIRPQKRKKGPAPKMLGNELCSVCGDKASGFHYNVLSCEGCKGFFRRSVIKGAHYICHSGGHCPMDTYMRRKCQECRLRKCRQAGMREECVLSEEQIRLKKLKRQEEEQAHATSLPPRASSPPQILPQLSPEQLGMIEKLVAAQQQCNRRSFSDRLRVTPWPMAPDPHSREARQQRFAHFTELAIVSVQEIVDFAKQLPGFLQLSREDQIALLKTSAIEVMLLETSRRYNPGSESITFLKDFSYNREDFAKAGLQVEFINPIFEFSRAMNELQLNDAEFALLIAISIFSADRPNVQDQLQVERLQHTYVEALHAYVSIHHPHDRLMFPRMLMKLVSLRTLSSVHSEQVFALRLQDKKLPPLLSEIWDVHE
The format is functional.

Assay [5] has as its target T6, Retinoic acid receptor gamma (Homo sapiens, UniProt P13631).
T6 sequence (P13631 whole entry): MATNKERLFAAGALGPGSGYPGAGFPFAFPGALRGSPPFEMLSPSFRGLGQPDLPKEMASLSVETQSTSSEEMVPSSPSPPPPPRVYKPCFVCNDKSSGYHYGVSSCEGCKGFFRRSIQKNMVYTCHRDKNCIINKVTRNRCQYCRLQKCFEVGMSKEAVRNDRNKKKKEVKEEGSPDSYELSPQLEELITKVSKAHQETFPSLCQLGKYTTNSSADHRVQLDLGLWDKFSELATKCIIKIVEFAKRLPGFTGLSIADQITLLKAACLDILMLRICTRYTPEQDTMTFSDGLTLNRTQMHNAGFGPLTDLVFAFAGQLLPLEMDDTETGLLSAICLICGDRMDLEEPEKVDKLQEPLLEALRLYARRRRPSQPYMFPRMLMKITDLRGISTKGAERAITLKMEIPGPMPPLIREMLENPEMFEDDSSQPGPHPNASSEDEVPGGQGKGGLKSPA
Format: functional, cell-based.

Structures are written as SMILES.
Also: assay procedure not described here.

With `COc1cc2nccc(Oc3ccc(NC(=O)C4(C(=O)Nc5ccc(F)cc5)CC4)cc3)c2cc1OC` [CABOZANTINIB], the AC50 (as a rule, the midpoint of the concentration-response curve, whichever way the signal moves) at Thromboxane A2 receptor is above 30 µM.

In the case of `CC(C(=O)O)c1ccc2c(c1)[nH]c1ccc(Cl)cc12` (stereo unspecified) [CARPROFEN], the AC50 in assay [1], in assay [2], in assay [3], in assay [4] and in assay [5] was above 30 µM each time.

Consider `CCN(CC)CCNC(=O)c1c(C)[nH]c(/C=C2\C(=O)Nc3ccc(F)cc32)c1C` [SUNITINIB], for which the AC50 in assay [1] is above 3 µM; in assay [3] it was above 10 µM; in assay [4], above 10 µM; in assay [5] it was above 10 µM.

Take `C=CC[C@@H]1/C=C(\C)C[C@H](C)C[C@H](OC)[C@H]2O[C@@](O)(C(=O)C(=O)N3CCCC[C@H]3C(=O)O[C@H](/C(C)=C/[C@@H]3CC[C@@H](O)[C@H](OC)C3)[C@H](C)[C@@H](O)CC1=O)[C@H](C)C[C@@H]2OC` [TACROLIMUS ANHYDROUS]: the AC50 on Thromboxane A2 receptor is above 30 µM.
